Key:
[1] = target: T1, eIF-2-alpha kinase GCN2 (Homo sapiens, UniProt Q9P2K8); assay: Inhibition of GCN2 (unknown origin)
[2] = target: T1, eIF-2-alpha kinase GCN2; assay: Inhibition of GCN2 in human SK-OV-3 cells assessed as reduction in phosphorylation of eIF2alpha by cellular assay; type: cell-based
[3] = […] in Sprague-Dawley rat […] assessed as half life at 0.5 mg/kg,iv; type: ADME, organism-based
[4] = AUC (0-infinity) in Sprague-Dawley rat at 2 mg/kg,po; type: ADME, organism-based; design: time infinity, dose 2 mg/kg, route po; settings: in vivo
[5] = Oral bioavailability in Sprague-Dawley rat at 2 mg/kg; type: ADME, organism-based; settings: in vivo

T1 sequence (Q9P2K8 whole entry): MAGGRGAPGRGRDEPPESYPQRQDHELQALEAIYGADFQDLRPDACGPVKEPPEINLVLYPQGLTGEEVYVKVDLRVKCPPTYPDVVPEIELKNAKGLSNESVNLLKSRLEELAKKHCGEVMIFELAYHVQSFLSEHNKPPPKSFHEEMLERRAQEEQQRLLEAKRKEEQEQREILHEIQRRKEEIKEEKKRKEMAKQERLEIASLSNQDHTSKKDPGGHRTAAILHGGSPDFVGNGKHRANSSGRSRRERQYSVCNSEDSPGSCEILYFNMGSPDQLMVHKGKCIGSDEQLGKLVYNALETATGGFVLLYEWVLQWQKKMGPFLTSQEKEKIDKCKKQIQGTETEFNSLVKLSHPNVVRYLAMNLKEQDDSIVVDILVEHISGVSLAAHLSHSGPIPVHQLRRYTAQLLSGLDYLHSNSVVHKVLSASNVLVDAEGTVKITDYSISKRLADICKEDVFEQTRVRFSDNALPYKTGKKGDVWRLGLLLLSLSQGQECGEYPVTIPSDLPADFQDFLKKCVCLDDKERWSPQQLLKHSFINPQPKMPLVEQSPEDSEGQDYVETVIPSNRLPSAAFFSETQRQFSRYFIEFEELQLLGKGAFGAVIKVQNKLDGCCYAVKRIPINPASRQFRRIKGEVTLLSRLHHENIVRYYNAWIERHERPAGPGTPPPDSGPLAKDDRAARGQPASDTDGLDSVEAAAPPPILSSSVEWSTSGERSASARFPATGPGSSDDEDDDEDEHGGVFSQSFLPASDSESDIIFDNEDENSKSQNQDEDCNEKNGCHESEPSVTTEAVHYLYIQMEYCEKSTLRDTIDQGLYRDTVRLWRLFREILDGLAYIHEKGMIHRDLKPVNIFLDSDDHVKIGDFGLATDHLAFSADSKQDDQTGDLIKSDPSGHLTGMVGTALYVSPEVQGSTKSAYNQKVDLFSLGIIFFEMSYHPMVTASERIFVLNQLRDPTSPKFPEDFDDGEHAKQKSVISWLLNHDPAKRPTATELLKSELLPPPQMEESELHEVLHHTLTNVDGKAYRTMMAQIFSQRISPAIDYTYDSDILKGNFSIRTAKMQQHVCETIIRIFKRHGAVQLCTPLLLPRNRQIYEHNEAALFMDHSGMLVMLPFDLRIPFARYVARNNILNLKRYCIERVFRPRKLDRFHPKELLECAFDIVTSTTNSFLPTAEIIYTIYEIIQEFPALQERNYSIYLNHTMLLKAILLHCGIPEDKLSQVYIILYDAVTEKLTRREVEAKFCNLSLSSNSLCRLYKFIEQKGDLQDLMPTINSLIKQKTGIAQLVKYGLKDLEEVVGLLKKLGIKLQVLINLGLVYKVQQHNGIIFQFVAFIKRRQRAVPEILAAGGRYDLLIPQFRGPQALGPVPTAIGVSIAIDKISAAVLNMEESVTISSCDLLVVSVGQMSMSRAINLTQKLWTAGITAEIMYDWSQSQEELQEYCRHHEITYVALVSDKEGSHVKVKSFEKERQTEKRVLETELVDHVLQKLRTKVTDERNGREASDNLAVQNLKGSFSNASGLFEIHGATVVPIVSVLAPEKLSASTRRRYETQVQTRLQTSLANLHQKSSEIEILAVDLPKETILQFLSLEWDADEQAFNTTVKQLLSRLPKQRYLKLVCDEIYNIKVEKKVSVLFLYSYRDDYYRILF

IC50 [1] [nM] | IC50 [2] [nM] | SMILES | other results
21 | 545 | Brc1nn(-c2ccc3ncccc3c2)c2nc(N[C@@H]3CC[C@@H](c4ncc[nH]4)C3)ncc12 (relative stereo) | 
78 |  | CNC(=O)[C@]1(C)CC[C@@H](Nc2ncc3c(Br)nn(-c4ccc(-c5nnc(C)s5)c(CC#N)c4)c3n2)C1 | 
2 | 9 | CNC(=O)[C@]1(C)CC[C@@H](Nc2ncc3c(Br)nn(-c4ccc(-c5nnc(C)s5)c(CCS(C)(=O)=O)c4)c3n2)C1 | half-life [3]: 39 min; AUC(0-inf) [4]: 26 ng·h/mL; bioavailability [5]: 3%
43 | 106 | CNS(=O)(=O)[C@@H]1CC[C@@H](Nc2ncc3c(Br)nn(-c4ccc5ncccc5c4)c3n2)C1 | 
61 | 156 | COCCNC(=O)[C@H]1CC[C@@H](Nc2ncc3c(Br)nn(-c4ccc5ncccc5c4)c3n2)C1 | 
168 |  | FC(F)(F)c1nn(-c2ccc3ncccc3c2)c2nc(Nc3cnn(C4CCNCC4)c3)ncc12 | 
> 1000 |  | COCCNC(=O)CNc1ncc2c(Br)nn(-c3ccc4ncccc4c3)c2n1 | 
3 | 610 | Brc1nn(-c2ccc3ncccc3c2)c2nc(Nc3cnn(C4CCNCC4)c3)ncc12 | 
40 | 86 | COCCNC(=O)[C@H]1C[C@H](Nc2ncc3c(Br)nn(-c4ccc5ncccc5c4)c3n2)C1 | 
17 | 21 | CNC(=O)[C@]1(C)CC[C@@H](Nc2ncc3c(Br)nn(-c4ccc5ncccc5c4)c3n2)C1 | 
23 |  | CCn1cc(Nc2ncc3c(C)nn(-c4ccc5ncccc5c4)c3n2)cn1 | 
> 1000 |  | CCn1cc(Nc2ccn3ncc(-c4ccc(OC)cc4)c3n2)cn1 | 
211 | 763 | COCCNC(=O)[C@H]1CC[C@@H](Nc2ncc3c(Br)nn(-c4ccc5ncccc5c4)c3n2)CC1 | 
8 | 33 | CNC(=O)[C@]1(C)CC[C@@H](Nc2ncc3c(Br)nn(-c4ccc(-c5nnc(C)s5)c(F)c4)c3n2)C1 | 
133 |  | CCn1cc(Nc2ncc3cnn(-c4ccc(OC)cc4)c3n2)cn1 | 
405 |  | CCn1cc(Nc2ncc3ccn(-c4ccc(OC)cc4)c3n2)cn1 | 
106 |  | COCc1noc([C@@H]2CC[C@@H](Nc3ncc4c(Br)nn(-c5ccc6ncccc6c5)c4n3)C2)n1 | 
81 |  | CCn1cc(Nc2ncc3c(C)nn(-c4ccc(OC)cc4)c3n2)cn1 | 
29 |  | CNC(=O)[C@]1(C)CC[C@@H](Nc2ncc3c(Br)nn(-c4ccc(-c5nnc(C)s5)c(CCN(C)C)c4)c3n2)C1 | 
5 | 20 | COCCNC(=O)[C@@H]1CC[C@@H](Nc2ncc3c(Br)nn(-c4ccc5ncccc5c4)c3n2)C1 | 
91 |  | CNC(=O)[C@]1(C)CC[C@@H](Nc2ncc3c(Br)nn(-c4ccc(-c5nnc(C)s5)c(CO)c4)c3n2)C1 | 
> 1000 |  | CCn1cc(Nc2ncc3cccc(Nc4ccc(OC)cc4)c3n2)cn1 | 
15 | 240 | CNC(=O)[C@]1(C)CC[C@@H](Nc2ncc3c(Br)nn(-c4ccc(-c5nnc(C)s5)c(CCN)c4)c3n2)C1 | 

IC50 [1] [nM] | IC50 [2] [nM] | SMILES | other results
90 | 378 | CS(=O)(=O)N1CC[C@@H](Nc2ncc3c(Br)nn(-c4ccc5ncccc5c4)c3n2)C1 | 
27 |  | CNC(=O)[C@]1(C)CC[C@@H](Nc2ncc3c(Br)nn(-c4ccc(-c5cnc(C)s5)cc4)c3n2)C1 | 
56 |  | CCn1cc(Nc2ncc3c(C)nn(-c4ccc(C#N)cc4)c3n2)cn1 | 
16 | 16 | CNC(=O)[C@]1(C)CC[C@@H](Nc2ncc3c(Br)nn(-c4ccc(-c5nnc(C)o5)cc4)c3n2)C1 | 
> 1000 |  | CCn1cc(Nc2ncc3cccc(-c4ccc(OC)cc4)c3n2)cn1 | 
144 | 183 | COCCNC(=O)[C@H]1CC[C@H](Nc2ncc3c(Br)nn(-c4ccc5ncccc5c4)c3n2)C1 | 
61 |  | CNC(=O)[C@]1(C)CC[C@@H](Nc2ncc3c(Br)nn(-c4ccc(-c5nnc(C)s5)c(S(C)(=O)=O)c4)c3n2)C1 | 
74 | 159 | COCCC(=O)N[C@@H]1CC[C@@H](Nc2ncc3c(Br)nn(-c4ccc5ncccc5c4)c3n2)C1 | 
5 |  | Clc1nn(-c2ccc3ncccc3c2)c2nc(Nc3cnn(C4CCNCC4)c3)ncc12 | 
76 |  | CNC(=O)[C@]1(C)CC[C@@H](Nc2ncc3c(Br)nn(-c4ccc(-c5ncc(C)s5)cc4)c3n2)C1 | 
10 | 29 | CNC(=O)[C@]1(C)CC[C@@H](Nc2ncc3c(Br)nn(-c4ccc(-c5nnc(C)s5)c(CCC#N)c4)c3n2)C1 | half-life [3]: 13 min; AUC(0-inf) [4]: 1900 ng·h/mL; bioavailability [5]: 42%
16 | 25 | CNC(=O)[C@]1(C)CC[C@@H](Nc2ncc3c(Br)nn(-c4ccc(-c5nnc(C)s5)c(CCO)c4)c3n2)C1 | half-life [3]: 47 min; AUC(0-inf) [4]: 518 ng·h/mL; bioavailability [5]: 15%
159 | 628 | COCCNC(=O)[C@H]1CC[C@H](Nc2ncc3c(Br)nn(-c4ccc5ncccc5c4)c3n2)CC1 | 
8 | 35 | CNC(=O)[C@]1(C)CC[C@@H](Nc2ncc3c(Br)nn(-c4ccc(-c5nnc(C)s5)c(C#N)c4)c3n2)C1 | half-life [3]: 51 min; AUC(0-inf) [4]: 1150 ng·h/mL; bioavailability [5]: 39%
359 |  | CNC(=O)[C@]1(C)CC[C@@H](Nc2ncc3c(Br)nn(-c4ccc(-c5nnc(C)s5)cc4F)c3n2)C1 | 
11 |  | Cc1nn(-c2ccc3ncccc3c2)c2nc(Nc3cnn(C4CCNCC4)c3)ncc12 | 
211 |  | CNC(=O)[C@]1(C)CC[C@@H](Nc2ncc3c(Br)nn(-c4ccc(-c5nnc(C)s5)c(CS(C)(=O)=O)c4)c3n2)C1 | 
21 | 25 | CNC(=O)[C@@H]1CC[C@@H](Nc2ncc3c(Br)nn(-c4ccc5ncccc5c4)c3n2)C1 | 
> 1000 |  | COCCNC(=O)CCNc1ncc2c(Br)nn(-c3ccc4ncccc4c3)c2n1 | 
923 |  | COCCNC(=O)[C@@H]1CC[C@H](Nc2ncc3c(Br)nn(-c4ccc5ncccc5c4)c3n2)C1 | 
55 | 262 | COCCS(=O)(=O)N[C@@H]1CC[C@@H](Nc2ncc3c(Br)nn(-c4ccc5ncccc5c4)c3n2)C1 (relative stereo) | 
109 |  | CNC(=O)[C@]1(C)CC[C@@H](Nc2ncc3c(Br)nn(-c4ccc(-c5nnc(C)s5)c(CNS(C)(=O)=O)c4)c3n2)C1 | 
